Tests used:
[1] = Experimental: This example provides an LC-MS/MS method for the determination of ketamine and norketamine in sodium heparin human plasma using ketamine-d4 and norketamine-d4 as the respective internal standards (IS).
Retention time and peak area were determined by Analyst® Data Acquisition/Processing Software (Version 1.4.2). Analyte concentrations were obtained from a calibration curve constructed by plotting the peak area ratio versus the concentration using Watson LIMS (Version 7.3). Watson LIMS and Microsoft Office Excel were used for statistical calculations. When Office Excel was used the calculations were 100% audited. Concentrations were calculated using linear regression according to the following equation: […]
Selectivity is defined as the ability of a chromatographic method to measure a response from the analyte without interference from the biological matrix. This was accomplished by evaluating six individual lots of human plasma prepared as blank and at the lower limit of quantitation (LLOQ, 0.500 ng/mL).
The matrix effect is defined as the suppression or enhancement of ionization of analytes by the presence of matrix components in the biological samples. See, e.g., C. T. Viswanathan, “Quantitative Bioanalytical Methods Validation and Implementation: Best Practices for Chromatographic and Ligand Binding Assays,” Pharmaceutical Research, Vol. 24, No. 10, October 2007, p. 1969. The matrix effect was evaluated by extracting single replicates of six lots of blank human plasma and spiking each lot at the Low and High QC concentration levels (1.50 ng/mL and 375 ng/mL) post extraction. The area ratios of the six lots of post-extraction spiked plasma samples were compared to the mean area ratio obtained from three replicates of the neat solution prepared at the same concentration level in purified water.
The linearity of the method was evaluated at a linear range of 0.500/0.500-500/500 ng/mL for ketamine/norketamine in human plasma. Linear regression (with a weighting factor of 1/x2) was used to produce the best fit for the concentration-detector response relationship for ketamine and norketamine in human plasma.
The validation was conducted with a target LLOQ of 0.500 ng/mL for ketamine and norketamine in human plasma. To evaluate the sensitivity, six QC samples prepared at the LLOQ were analyzed during three individual batch runs as part of the intra-run and inter-run accuracy and precision for the method. The concentrations were calculated with the calibration curve.
The intra-run and inter-run accuracy and precision of the method were investigated at four different QC concentration levels (0.500 ng/mL (LLOQ), 1.50 ng/mL, 80.0 ng/mL, and 375 ng/mL).
Recoveries were calculated according to the following formula: […]
To assess the reinjection reproducibility, an analyte batch containing a standard curve and QC samples was reinjected after being kept at room temperature for 161.5 hours.

subjects with TRD [2] = settings: human, in vivo, other: intranasal
Experimental: (§1) The Clinician Administered Dissociative States Scale (CADSS) was measured prior to the start of each dose, at 40 minutes, and 1.5 hours postdose.

[3] = tested on: subjects with MDD at imminent risk for suicide; assay: SIBAT Clinical Global Judgment of Suicide Risk, Study […]2001; assay type: in vivo, human; settings: 84 mg
Excerpt: • a. Changes from baseline to Day 2 and Day 25 for the MADRS total score • b. Changes from baseline to Day 1 4-hours postdose, Day 2 and Day 25 for the MADRS Suicide Item • c. Changes from baseline to Day 1 4-hours postdose, Day 2, and Day 25 for the clinical global judgment of suicide risk from the Suicide Ideation and Behavior Assessment Tool (SIBAT) • d. Sustained response (Onset of Clinical Response) defined as at least 50% reduction from baseline in MADRS total score with onset on Day 1 that is maintained through the end of the double-blind phase (Day 25) • e. Changes from baseline to Day 1 4-hours postdose, Day 2, and Day 25 for the Beck Scale for Suicidal Ideation (BSS) • f. Changes from baseline to Day 1 4-hours postdose and Day 25 for the Beck Hopelessness Scale
The clinical global judgment of suicide risk (Module 8) summarizes clinician overall judgment of suicide risk as derived from information gathered from the full SIBAT tool. It operates like numerous other CGI-severity scales that have been used in other psychiatric studies. Change in the clinical global judgment of suicide risk is designed to directly identify clinical meaningful changes in suicidal ideation and to permit classification of suicide risk.
The analysis of the change in SIBAT score was based on an ANCOVA model on ranks of change in SIBAT with treatment, antidepressant therapy, and analysis center as factors, and baseline value (unranked) as a covariate. There was a significant difference (two-sided […]) between the two treatment groups when comparing the mean rank of change from baseline at Day 1: 4-hours postdose in favor of esketamine 84 mg See, Table 58. See, FIG. 39. […] This difference was not evident at the Day 25 DB endpoint. See, FIG. 40, which is based on LOCF data and analyzed using Cochran-Mantel-Haenszel test controlling for analysis center and antidepressant therapy.

subjects with TRD [4] = settings: human, in vivo, other: intranasal; remark: listed apart in the source
Experimental: as §1

[5] = Pharmacokinetics of intranasal esketamine 28, 56, 84 mg in healthy subjects (Example 9); settings: for AUC(0-inf) / AUC(0-t) / Cmax / half-life / Tmax: both, human, plasma; for Tmax: healthy subjects
Experimental: This was an open-label, single-center study. The subjects were healthy Caucasian men and women, 20 to 55 years of age, inclusive. […] The solution consisted of:
Pharmacokinetic blood samples for measurement of esketamine and noresketamine concentrations in plasma were collected from predose until up to 24 hours after each intranasal esketamine regimen on Day 1 of each period.
Blood samples (4 mL each) for determination of esketamine and noresketamine plasma concentrations were collected into the appropriate collection tube (e.g., Vacutainer®) at timepoints 0.00, 0.12, 0.20, 0.37, 0.53, 0.67, 0.83, 1.00, 1.25, 1.50, 2.00, 3.00, 4.00, 6.00, 9.00, 12.00, 18.00, and 24.00 h. The total amount of blood to be drawn for clinical laboratory tests and PK evaluations is approximately 327 mL.
Plasma samples were analyzed for esketamine and noresketamine concentrations using the validated, specific and sensitive liquid chromatography coupled to tandem mass spectrometry (LC-MS/MS) achiral method of Example 8.
Serial PK blood samples (4 mL each) were collected for a 24-hour period from each subject (Periods 1, 2, and 3).
The following key parameters of esketamine and noresketamine in plasma were calculated using noncompartmental methods and actual sampling times: Cmax, tmax, AUClast, AUC∞, t1/2,λ, and λz.

For `CN[C@]1(c2ccccc2Cl)CCCCC1=O` [esketamine, (S)-2-(2-chlorophenyl)-2-(methylamino)cyclohexanone], the “QC sample freeze/thaw stability” value ([1]; freeze (−20° C.)/thaw (room temperature)) was 3 freeze (−20° C.)/thaw (room temperature) cycles, the “QC sample long-term storage stability” value ([1]; human plasma QC sample at −20° C.) was 707 days at −20 °C and the “QC sample bench-top stability” value ([1]; human plasma QC sample, room temperature) was 18 hours at room temperature. For the same compound, the “CADSS dissociative and perceptual change symptoms resolved by (postdose)” value (subjects with TRD [2]) was at most 1.5 h, the “SIBAT Clinical Global Judgment of Suicide Risk, change from baseline, median (range)” value ([3]; Day 1 (DB): 4 H, LOCF, N 33) was 0.0 (−6; 1) and the “SIBAT Clinical Global Judgment of Suicide Risk, median (range)” value ([3]; Day 1 (DB): 4 H, LOCF, N 33) was 5.0 (0; 6). The “SIBAT Clinical Global Judgment of Suicide Risk, change from baseline, median (range)” value ([3]; Day 2(DB) LOCF, N 35) was −1.0 (−6; 1), the “SIBAT Clinical Global Judgment of Suicide Risk, median (range)” value ([3]; Day 2(DB) LOCF, N 35) was 5.0 (0; 6) and the “Subjects with a SIBAT score of 5 or 6” value ([3]; […]2001, Day 1: 4-hour postdose) was 63.6%. The “CADSS dissociative/perceptual change symptoms resolved by (post dose)” value (subjects with TRD [4]) was at most 1.5 h, the AUC(0-inf) ([5]; inhaled or intranasal, 28 mg) was 136 ng·h/mL and the AUC(0-t) ([5]; inhaled or intranasal, 28 mg) was 128 ng·h/mL. The Cmax ([5]; inhaled or intranasal, 28 mg) was 49.7 ng/mL, the half-life ([5]; inhaled or intranasal, 28 mg) was 435 min and the Tmax ([5]; inhaled or intranasal, 28 mg, tmax, esketamine in plasma, single intranasal 28 mg (Treatment A), median) was 40.2 min. For the same compound, the AUC(0-inf) ([5]; inhaled or intranasal, 56 mg) was 222 ng·h/mL, the AUC(0-t) ([5]; inhaled or intranasal, 56 mg) was 216 ng·h/mL and the Cmax ([5]; inhaled or intranasal, 56 mg) was 74.1 ng/mL. The half-life ([5]; inhaled or intranasal, 56 mg) was 435 min, the Tmax ([5]; inhaled or intranasal, 56 mg, tmax, esketamine in plasma, single intranasal 56 mg (Treatment B), median) was 40.2 min and the AUC(0-inf) ([5]; inhaled or intranasal, 84 mg) was 329 ng·h/mL. It also gave an AUC(0-t) ([5]; inhaled or intranasal, 84 mg) of 310 ng·h/mL, a Cmax ([5]; inhaled or intranasal, 84 mg) of 103 ng/mL and a half-life ([5]; inhaled or intranasal, 84 mg) of 427 min. It also gave a Tmax ([5]; inhaled or intranasal, 84 mg, Median tmax of esketamine, range across regimens, intranasal 28, 56, 84 mg) of 40.2 to 49.8 min, a Tmax ([5]; inhaled or intranasal, 84 mg, tmax, esketamine in plasma, single intranasal 84 mg (Treatment C), median) of 49.8 min and a half-life ([5]; other: intranasal, 84 mg) of 427 to 435 min. For the same compound, the “AUC (AUClast and AUC∞) variability” value ([5]; esketamine in plasma) was 25.0% to 30.4 and the “Cmax variability (percent coefficient of variation) across the 3 treatment groups” value ([5]; esketamine in plasma) was 35.7% to 36.7.

Reference: US20230121313A1 (priority 2019, published 2023)
